# Assay results from PubChem BioAssay AID342 (DTP/NCI, 2004).
# “And” between values parts separate entries of the source, which are not always exact repeats. Equal entries are not always repeated.
# System: Swiss mice, Sarcoma 180 sc, mean tumor weight T/C
# Assay: NCI In Vivo Anticancer Drug Screen. Data for tumor model Sarcoma 180 (subcutaneous) in Swiss mice
# Conditions: endpoint: mean tumor weight, higher = larger tumour
# Experimental: The antitumor activity of compounds was measured in mice bearing transplantable tumors. Survival or tumor size were measured and the results are expressed as the measurement made in the treated group (T) divided by the measurement made in the vehicle treated control group (C). The tumor model used in this assay is Sarcoma 180 (subcutaneous) in Swiss mice
smiles,measurement,setting,value
CN(Cc1cnc2nc(N)nc(N)c2n1)c1ccc(C(=O)N[C@@H](CCC(=O)O)C(=O)O)cc1,T/C,"dose: 0.12 mg/kg/injection, schedule: Q01DX007 (ip), vehicle: water",101 % of control
same,T/C,"dose: 0.12 mg/kg/injection, schedule: Q#A X014 (ip), vehicle: carboxymethylcellulose (CMC)",123 % of control
same,T/C,"dose: 0.25 mg/kg/injection, schedule: Q01DX007 (ip), vehicle: water",57 % of control
same,T/C,"dose: 0.25 mg/kg/injection, schedule: Q#A X014 (ip), vehicle: carboxymethylcellulose (CMC)",121 % of control
same,T/C,"dose: 0.5 mg/kg/injection, schedule: Q01DX007 (ip), vehicle: carboxymethylcellulose (CMC)",95 % of control and 110 % of control
same,T/C,"dose: 0.5 mg/kg/injection, schedule: Q#A X014 (ip), vehicle: carboxymethylcellulose (CMC)",73 % of control
same,T/C,"dose: 0.76 mg/kg/injection, schedule: Q01DX007 (ip), vehicle: carboxymethylcellulose (CMC)",119 % of control
same,T/C,"dose: 1.0 mg/kg/injection, schedule: Q01DX007 (ip), vehicle: carboxymethylcellulose (CMC)",107 % of control
same,T/C,"dose: 1.26 mg/kg/injection, schedule: Q01DX007 (ip), vehicle: carboxymethylcellulose (CMC)",68 % of control
same,T/C,"dose: 1.5 mg/kg/injection, schedule: Q01DX007 (ip), vehicle: carboxymethylcellulose (CMC)",78 % of control and 86 % of control
same,T/C,"dose: 1.9 mg/kg/injection, schedule: Q01DX007 (ip), vehicle: carboxymethylcellulose (CMC)",68 % of control
same,T/C,"dose: 237.0 micrograms/kg/injection, schedule: Q01DX007 (ip), vehicle: carboxymethylcellulose (CMC)",105 % of control
same,T/C,"dose: 475.0 micrograms/kg/injection, schedule: Q01DX007 (ip), vehicle: carboxymethylcellulose (CMC)",104 % of control
same,T/C,"dose: 950.0 micrograms/kg/injection, schedule: Q01DX007 (ip), vehicle: carboxymethylcellulose (CMC)",83 % of control
same,T/C,"dose: 1900.0 micrograms/kg/injection, schedule: Q01DX007 (ip), vehicle: carboxymethylcellulose (CMC)",32 % of control
Nc1cccc2c(=O)[nH][nH]c(=O)c12,T/C,"dose: 62.5 mg/kg/injection, schedule: Q01DX007 (ip), vehicle: water",119 % of control
same,T/C,"dose: 125.0 mg/kg/injection, schedule: Q01DX007 (ip), vehicle: water",118 % of control
same,T/C,"dose: 250.0 mg/kg/injection, schedule: Q01DX007 (ip), vehicle: water",61 % of control
same,T/C,"dose: 375.0 mg/kg/injection, schedule: Q01DX007 (ip), vehicle: water",85 % of control
C[C@@H]1C[C@](O)([C@@H](C)Cl)C(=O)O[C@@H]2CCN3CC=C(COC(=O)[C@]1(C)O)[C@H]23,T/C,"dose: 25.0 mg/kg/injection, schedule: Q01DX007 (ip), vehicle: saline",74 % of control
NC(=O)c1[nH]cnc1/N=N/N(Cc1ccccc1)Cc1ccccc1,T/C,"dose: 15.5 mg/kg/injection, schedule: Q#A X014 (ip), vehicle: carboxymethylcellulose (CMC)",49 % of control
same,T/C,"dose: 31.0 mg/kg/injection, schedule: Q#A X014 (ip), vehicle: carboxymethylcellulose (CMC)",59 % of control
same,T/C,"dose: 62.5 mg/kg/injection, schedule: Q#A X014 (ip), vehicle: carboxymethylcellulose (CMC)",61 % of control
O=C1NC(=O)C2(CCCc3ccc(N(CCCl)CCCl)cc32)N1 (stereo not drawn),T/C,"dose: 16.0 mg/kg/injection, schedule: Q01DX007 (ip), vehicle: other",70 % of control
same,T/C,"dose: 16.0 mg/kg/injection, schedule: Q01DX007 (ip), vehicle: saline",67 % of control
same,T/C,"dose: 24.0 mg/kg/injection, schedule: Q01DX007 (ip), vehicle: other",107 % of control
same,T/C,"dose: 24.0 mg/kg/injection, schedule: Q01DX007 (ip), vehicle: saline",85 % of control
same,T/C,"dose: 36.0 mg/kg/injection, schedule: Q01DX007 (ip), vehicle: other",61 % of control
same,T/C,"dose: 36.0 mg/kg/injection, schedule: Q01DX007 (ip), vehicle: saline",75 % of control
same,T/C,"dose: 55.0 mg/kg/injection, schedule: Q01DX007 (ip), vehicle: saline",52 % of control
same,T/C,"dose: 125.0 mg/kg/injection, schedule: Q01DX007 (ip), vehicle: saline",29 % of control
same,T/C,"dose: 188.0 mg/kg/injection, schedule: Q01DX007 (ip), vehicle: other",65 % of control
same,T/C,"dose: 282.0 mg/kg/injection, schedule: Q01DX007 (ip), vehicle: other",80 % of control
same,T/C,"dose: 423.0 mg/kg/injection, schedule: Q01DX007 (ip), vehicle: other",81 % of control
CC(=O)OCC1=CC2OC(=O)C3=COC(OC4OC(CO)C(O)C(O)C4O)C1C32 (stereo not drawn),T/C,"dose: 220.0 mg/kg/injection, schedule: Q01DX007 (ip), vehicle: carboxymethylcellulose (CMC)",67 % of control
O=[As]O,T/C,"dose: 1.67 mg/kg/injection, schedule: Q01DX007 (ip), vehicle: carboxymethylcellulose (CMC)",90 % of control
same,T/C,"dose: 3.12 mg/kg/injection, schedule: Q#A X014 (ip), vehicle: carboxymethylcellulose (CMC)",121 % of control
same,T/C,"dose: 3.33 mg/kg/injection, schedule: Q01DX007 (ip), vehicle: carboxymethylcellulose (CMC)",78 % of control
same,T/C,"dose: 3.37 mg/kg/injection, schedule: Q01DX007 (ip), vehicle: carboxymethylcellulose (CMC)",98 % of control
same,T/C,"dose: 5.0 mg/kg/injection, schedule: Q01DX007 (ip), vehicle: carboxymethylcellulose (CMC)",66 % of control
same,T/C,"dose: 6.25 mg/kg/injection, schedule: Q#A X014 (ip), vehicle: carboxymethylcellulose (CMC)",99 % of control
same,T/C,"dose: 6.65 mg/kg/injection, schedule: Q01DX007 (ip), vehicle: carboxymethylcellulose (CMC)",85 % of control
same,T/C,"dose: 7.0 mg/kg/injection, schedule: Q01DX007 (ip), vehicle: carboxymethylcellulose (CMC)",90 % of control
same,T/C,"dose: 9.0 mg/kg/injection, schedule: Q01DX007 (ip), vehicle: carboxymethylcellulose (CMC)",83 % of control
same,T/C,"dose: 11.0 mg/kg/injection, schedule: Q01DX007 (ip), vehicle: carboxymethylcellulose (CMC)",64 % of control
O=CNC(Cc1ccc(N(CCCl)CCCl)cc1)C(=O)O (stereo not drawn),T/C,"dose: 22.0 mg/kg/injection, schedule: Q#A X014 (ip), vehicle: methylcellulose (MC)",61 % of control
same,T/C,"dose: 33.0 mg/kg/injection, schedule: Q#A X014 (ip), vehicle: methylcellulose (MC)",60 % of control
same,T/C,"dose: 50.0 mg/kg/injection, schedule: Q#A X014 (ip), vehicle: methylcellulose (MC)",25 % of control
same,T/C,"dose: 75.0 mg/kg/injection, schedule: Q#A X014 (ip), vehicle: methylcellulose (MC)",11 % of control
CCc1nc(N)nc(N)c1-c1ccc(Cl)c(Cl)c1.[Cl][Pd][Cl],T/C,"dose: 6.6 mg/kg/injection, schedule: Q01DX007 (ip), vehicle: carboxymethylcellulose (CMC)",95 % of control
same,T/C,"dose: 8.0 mg/kg/injection, schedule: Q01DX007 (ip), vehicle: methylcellulose (MC)",111 % of control
same,T/C,"dose: 10.0 mg/kg/injection, schedule: Q01DX007 (ip), vehicle: carboxymethylcellulose (CMC)",49 % of control
same,T/C,"dose: 15.0 mg/kg/injection, schedule: Q01DX007 (ip), vehicle: carboxymethylcellulose (CMC)",35 % of control
same,T/C,"dose: 15.0 mg/kg/injection, schedule: Q01DX007 (ip), vehicle: methylcellulose (MC)",55 % of control
same,T/C,"dose: 22.5 mg/kg/injection, schedule: Q01DX007 (ip), vehicle: carboxymethylcellulose (CMC)",34 % of control
same,T/C,"dose: 30.0 mg/kg/injection, schedule: Q01DX007 (ip), vehicle: methylcellulose (MC)",51 % of control
CCCCNP(=O)(N1CC1)N1CC1,T/C,"dose: 0.15 mg/kg/injection, schedule: Q#A X014 (ip), vehicle: saline",18 % of control
same,T/C,"dose: 0.25 mg/kg/injection, schedule: Q#A X014 (ip), vehicle: saline",7 % of control
CC(=O)[C@@]1(O)CC[C@H]2[C@@H]3CCC4=CC(=O)CC[C@]4(C)[C@@]3(F)[C@@H](O)C[C@@]21C,T/C,"dose: 12.0 mg/kg/injection, schedule: Q01DX007 (sc), vehicle: steriod suspending solution",67 % of control
same,T/C,"dose: 25.0 mg/kg/injection, schedule: Q01DX007 (sc), vehicle: steriod suspending solution",69 % of control
same,T/C,"dose: 55.0 mg/kg/injection, schedule: Q01DX007 (sc), vehicle: steriod suspending solution",40 % of control
same,T/C,"dose: 111.0 mg/kg/injection, schedule: Q01DX007 (sc), vehicle: steriod suspending solution",40 % of control and 42 % of control
same,T/C,"dose: 166.0 mg/kg/injection, schedule: Q01DX007 (sc), vehicle: steriod suspending solution",61 % of control
same,T/C,"dose: 250.0 mg/kg/injection, schedule: Q01DX007 (sc), vehicle: steriod suspending solution",58 % of control
same,T/C,"dose: 375.0 mg/kg/injection, schedule: Q01DX007 (sc), vehicle: steriod suspending solution",44 % of control
C[C@H]1/C(=C/C(=O)OCCN(C)C)CC[C@H]2[C@H]1C(=O)C[C@H]1C(C)(C)[C@@H](O)CC[C@]21C,T/C,"dose: 1.88 mg/kg/injection, schedule: Q01DX007 (ip), vehicle: saline",60 % of control
same,T/C,"dose: 3.75 mg/kg/injection, schedule: Q01DX007 (ip), vehicle: saline",64 % of control
same,T/C,"dose: 7.5 mg/kg/injection, schedule: Q01DX007 (ip), vehicle: saline",75 % of control
O=CNC(Cc1cccc(N(CCCl)CCCl)c1)C(=O)O (stereo not drawn),T/C,"dose: 2.5 mg/kg/injection, schedule: Q#A X014 (ip), vehicle: methylcellulose (MC)",45 % of control
same,T/C,"dose: 4.5 mg/kg/injection, schedule: Q#A X014 (ip), vehicle: methylcellulose (MC)",21 % of control and 25 % of control
same,T/C,"dose: 5.0 mg/kg/injection, schedule: Q#A X014 (ip), vehicle: methylcellulose (MC)",52 % of control
same,T/C,"dose: 7.5 mg/kg/injection, schedule: Q#A X014 (ip), vehicle: methylcellulose (MC)",18 % of control
same,T/C,"dose: 15.0 mg/kg/injection, schedule: Q#A X014 (ip), vehicle: methylcellulose (MC)",20 % of control
